In article PMC11859928, “Design, Synthesis, and Antiproliferative Activity of Novel Indole/1,2,4-Triazole Hybrids as Tubulin Polymerization Inhibitors” (Pharmaceuticals, 2025):

Experiments:
ACHN = assay: NCI one-dose assay; type: cell-based; settings: Homo sapiens, Renal cancer, read-out: Cell growth inhibition %
BT-549 = assay: NCI one-dose assay; type: cell-based; settings: Homo sapiens, BT-549, Breast cancer, read-out: Cell growth inhibition %
CAKI-1 = assay: NCI one-dose assay; type: cell-based; settings: Homo sapiens, CAKI-1, Renal cancer, read-out: Cell growth inhibition %
CCRF-CEM = assay: NCI one-dose assay; type: cell-based; settings: Homo sapiens, Leukemia, read-out: Cell growth inhibition %
COLO 205 = assay: NCI one-dose assay; type: cell-based; settings: Homo sapiens, COLO 205, Colon cancer, read-out: Cell growth inhibition %
HCT-116 = assay: NCI one-dose assay; type: cell-based; settings: Homo sapiens, HCT-116, Colon cancer, read-out: Cell growth inhibition %
HCT-15 = assay: NCI one-dose assay; type: cell-based; settings: Homo sapiens, HCT-15, Colon cancer, read-out: Cell growth inhibition %
HOP-62 = assay: NCI one-dose assay; type: cell-based; settings: Homo sapiens, HOP-62, Non-small cell lung cancer, read-out: Cell growth inhibition %
KM12 = assay: NCI one-dose assay; type: cell-based; settings: Homo sapiens, KM12, Colon cancer, read-out: Cell growth inhibition %
MCF7 = assay: NCI one-dose assay; type: cell-based; settings: Homo sapiens, MCF7, Breast cancer, read-out: Cell growth inhibition %
MDA-MB-435 = assay: NCI one-dose assay; type: cell-based; settings: Homo sapiens, MDA-MB-435, Melanoma, read-out: Cell growth inhibition %
MDA-MB-468 = assay: NCI one-dose assay; type: cell-based; settings: Homo sapiens, MDA-MB-468, Breast cancer, read-out: Cell growth inhibition %
MOLT-4 = assay: NCI one-dose assay; type: cell-based; settings: Homo sapiens, MOLT-4, Leukemia, read-out: Cell growth inhibition %
NCI-H226 = assay: NCI one-dose assay; type: cell-based; settings: Homo sapiens, NCI-H226, Non-small cell lung cancer, read-out: Cell growth inhibition %
NCI-H322M = assay: NCI one-dose assay; type: cell-based; settings: Homo sapiens, Non-small cell lung cancer, read-out: Cell growth inhibition %
PC-3 = assay: NCI one-dose assay; type: cell-based; settings: Homo sapiens, PC-3, Prostate cancer, read-out: Cell growth inhibition %
RPMI-8226 = assay: NCI one-dose assay; type: cell-based; settings: Homo sapiens, RPMI-8226, Leukemia, read-out: Cell growth inhibition %
RXF 393 = assay: NCI one-dose assay; type: cell-based; settings: Homo sapiens, RXF 393, Renal cancer, read-out: Cell growth inhibition %
SF-295 = assay: NCI one-dose assay; type: cell-based; settings: Homo sapiens, SF-295, CNS cancer, read-out: Cell growth inhibition %
SK-MEL-2 = assay: NCI one-dose assay; type: cell-based; settings: Homo sapiens, SK-MEL-2, Melanoma, read-out: Cell growth inhibition %
SNB-75 = assay: NCI one-dose assay; type: cell-based; settings: Homo sapiens, SNB-75, CNS cancer, read-out: Cell growth inhibition %
UACC-62 = assay: NCI one-dose assay; type: cell-based; settings: Homo sapiens, UACC-62, Melanoma, read-out: Cell growth inhibition %
NCI 60 cell lines = assay: NCI one-dose assay, full panel; type: cell-based, human; settings: for anticancer activity (in words): across all cell lines, 10 µM
Protocol: The National Cancer Institute (NCI), Bethesda, USA, selected the final compounds 6a–j and 7a–j for in vitro anticancer screening. An initial in vitro single-dose anticancer experiment was performed with the entire NCI 60 cell lines derived from nine tumor subpanel cancer cell lines. The results for each compound were illustrated as a mean graph showing the percentage growth of treated cells compared to untreated control cells (see Supplementary Materials).
The NCI anticancer screening process has been thoroughly detailed. The Drug Evaluation Branch of the National Cancer Institute in Bethesda, […], USA, established the procedure and conducted the anticancer assay on 60 human tumor cell lines from nine neoplastic cancers.

## C=CCn1c(SCC(=O)c2ccc(Cl)cc2)nnc1-c1c[nH]c2ccccc12 [Compound 6e, 2-((4-Allyl-5-(1H-indol-3-yl)-4H-1,2,4-triazol-3-yl)thio)-1-(4-chlorophenyl)ethenone]
ACHN
  inhibition at 10 µM: 7.39%
BT-549
  inhibition at 10 µM: -0.26%
CAKI-1
  inhibition at 10 µM: 7.04%
CCRF-CEM
  inhibition at 10 µM: 2.28%
COLO 205
  inhibition at 10 µM: -11.1%
HCT-116
  inhibition at 10 µM: 6.8%
HCT-15
  inhibition at 10 µM: 6.28%
HOP-62
  inhibition at 10 µM: 4.08%
KM12
  inhibition at 10 µM: -3.89%
MCF7
  inhibition at 10 µM: 7.08%
MDA-MB-435
  inhibition at 10 µM: -5.05%
MDA-MB-468
  inhibition at 10 µM: 8%
MOLT-4
  inhibition at 10 µM: 10.6%
NCI-H226
  inhibition at 10 µM: 10.3%
NCI-H322M
  inhibition at 10 µM: -2.47%
PC-3
  inhibition at 10 µM: 22.3%
RPMI-8226
  inhibition at 10 µM: 7.71%
RXF 393
  inhibition at 10 µM: -9.22%
SF-295
  inhibition at 10 µM: 3.57%
SK-MEL-2
  inhibition at 10 µM: -17.1%
SNB-75
  inhibition at 10 µM: -0.53%
UACC-62
  inhibition at 10 µM: 14.7%
NCI 60 cell lines
  anticancer activity (in words): minimal anticancer activity

## C=CCn1c(SC/C(=N\O)c2ccc(Br)cc2)nnc1-c1c[nH]c2ccccc12 [Compound 7d, (Z)-2-((4-allyl-5-(1H-indol-3-yl)-4H-1,2,4-triazol-3-yl)thio)-1-(4-bromophenyl) Ethanone Oxime]
ACHN
  inhibition at 10 µM: 17.9%
BT-549
  inhibition at 10 µM: 20.4%
CAKI-1
  inhibition at 10 µM: 25.8%
CCRF-CEM
  inhibition at 10 µM: 26.7%
COLO 205
  inhibition at 10 µM: 8.25%
HCT-116
  inhibition at 10 µM: 47%
HCT-15
  inhibition at 10 µM: 26.9%
HOP-62
  inhibition at 10 µM: 0.14%
KM12
  inhibition at 10 µM: 8.58%
MCF7
  inhibition at 10 µM: 17.9%
MDA-MB-435
  inhibition at 10 µM: 11.5%
MDA-MB-468
  inhibition at 10 µM: 42.2%
MOLT-4
  inhibition at 10 µM: 43.7%
NCI-H226
  inhibition at 10 µM: 33.6%
NCI-H322M
  inhibition at 10 µM: 16.3%
PC-3
  inhibition at 10 µM: 31.6%
RPMI-8226
  inhibition at 10 µM: 37.9%
RXF 393
  inhibition at 10 µM: 19.3%
SF-295
  inhibition at 10 µM: 32.5%
SK-MEL-2
  inhibition at 10 µM: 8.97%
SNB-75
  inhibition at 10 µM: 6.02%
UACC-62
  inhibition at 10 µM: 36.3%
NCI 60 cell lines; Homo sapiens, 60 cell, eleven cell lines, read-out: growth inhibition percentage, range
  inhibition at 10 µM: 34 to 47%

## C=CCn1c(SCC(=O)c2ccc(OC)cc2)nnc1-c1c[nH]c2ccccc12 [Compound 6b, 2-((4-Allyl-5-(1H-indol-3-yl)-4H-1,2,4-triazol-3-yl)thio)-1-(4-methoxyphenyl) Ethenone]
ACHN
  inhibition at 10 µM: 8.68%
BT-549
  inhibition at 10 µM: -1.84%
CAKI-1
  inhibition at 10 µM: 7.83%
CCRF-CEM
  inhibition at 10 µM: 8.66%
COLO 205
  inhibition at 10 µM: 2.83%
HCT-116
  inhibition at 10 µM: 5.43%
HCT-15
  inhibition at 10 µM: 2.44%
HOP-62
  inhibition at 10 µM: 6.07%
KM12
  inhibition at 10 µM: -4.63%
MCF7
  inhibition at 10 µM: 5.93%
MDA-MB-435
  inhibition at 10 µM: -8.45%
MDA-MB-468
  inhibition at 10 µM: 5.01%
MOLT-4
  inhibition at 10 µM: 6.64%
NCI-H226
  inhibition at 10 µM: 7.5%
NCI-H322M
  inhibition at 10 µM: 2.42%
PC-3
  inhibition at 10 µM: 20.3%
RPMI-8226
  inhibition at 10 µM: 16.8%
RXF 393
  inhibition at 10 µM: -5.88%
SF-295
  inhibition at 10 µM: 2.91%
SK-MEL-2
  inhibition at 10 µM: -33.2%
SNB-75
  inhibition at 10 µM: -14.8%
UACC-62
  inhibition at 10 µM: 15.6%
NCI 60 cell lines
  anticancer activity (in words): minimal anticancer activity

## C=CCn1c(SCC(=O)c2ccc(Br)cc2)nnc1-c1c[nH]c2ccccc12 [Compound 6d, 2-((4-Allyl-5-(1H-indol-3-yl)-4H-1,2,4-triazol-3-yl)thio)-1-(4-bromophenyl)ethenone]
ACHN
  inhibition at 10 µM: 11.7%
BT-549
  inhibition at 10 µM: -5.98%
CAKI-1
  inhibition at 10 µM: 9.77%
CCRF-CEM
  inhibition at 10 µM: 2.08%
COLO 205
  inhibition at 10 µM: -7.53%
HCT-116
  inhibition at 10 µM: 6.53%
HCT-15
  inhibition at 10 µM: 0.98%
HOP-62
  inhibition at 10 µM: -2.78%
KM12
  inhibition at 10 µM: -2.46%
MCF7
  inhibition at 10 µM: 2.11%
MDA-MB-435
  inhibition at 10 µM: -8.05%
MDA-MB-468
  inhibition at 10 µM: 13.1%
MOLT-4
  inhibition at 10 µM: 8.82%
NCI-H226
  inhibition at 10 µM: 9.93%
NCI-H322M
  inhibition at 10 µM: 0.55%
PC-3
  inhibition at 10 µM: 21.7%
RPMI-8226
  inhibition at 10 µM: 1.17%
RXF 393
  inhibition at 10 µM: -12.8%
SF-295
  inhibition at 10 µM: 6.78%
SK-MEL-2
  inhibition at 10 µM: -15.3%
SNB-75
  inhibition at 10 µM: -6.14%
UACC-62
  inhibition at 10 µM: 16.9%
NCI 60 cell lines
  anticancer activity (in words): minimal anticancer activity
